Key:
[1] = imperceptible water loss (IWL), evaporimeter (Servomed) on delipidized stratum corneum
Source text: This measurement is made using an evaporimeter (Servomed) which quantitatively determines water evaporation, that is to say diffusional water transport, from a sample of previously delipidized stratum corneum which forms a stopper in a cylindrical capsule containing water, the entire assembly being placed in a chamber at controlled temperature and relative humidity.
Sensors allow the partial vapor pressure of water to be measured at two points located at different distances from the sample.
The partial vapor pressure of water is thus determined between the two points, and thus the rate of evaporation in accordance with Fick's law.
A comparative test was performed of the effects on the IWL of a solution containing the compound of Example 2 or 4 in tetrahydrofuran (THF) relative to a solution containing, in place of the compound according to the invention, either the pure isomer (D-ribo form) corresponding to the compound of Example 4 (compound A), or the compound of Example 1 of the European patent application published under the No. 0,500,437 filed by the Applicant (compound B).

[2] = coefficient of friction of the hair (smoothness), bleached hair, 1% in THF; details: for coefficient of friction of the hair, R → T: root to tip; for coefficient of friction of the hair, T → R: tip to root
Description: (§1) A comparative test was performed on the effects on the smoothness of the hair of a solution containing 1% of the compound of Example 4 in tetrahydrofuran (THF), relative to a control consisting of THF, or to a solution containing, in place of the compound according to the invention, either the pure isomer (D-ribo form) corresponding to the compound of Example 4 (compound A) or the compound of Example 1 of the European patent application published under the No. 0,500,437 owned by the present assignee (compound B).
(§2) This test determines the coefficient of friction of the hair by measuring the force to apply to a control mass in order to make it slide at constant speed on two hairs stretched out in parallel. The measurement is made by sliding the mass from the root to the tip of the hairs (R→T) and vice versa (T→R).

[3] = coefficient of friction of the hair (smoothness), neutral hair, 1% in THF; details: for coefficient of friction of the hair, R → T / coefficient of friction of the hair, T → R: neutral hair, 1% in THF; for coefficient of friction of the hair, R → T: root to tip; for coefficient of friction of the hair, T → R: tip to root
Description: as §1, §2

Row | Compound | I.W.L. 20 H (%) ([1]; 2% in THF) | coefficient of friction of the hair, R → T ([2]; non-rinsed) | coefficient of friction of the hair, T → R ([2]; non-rinsed) | coefficient of friction of the hair, R → T ([2]; rinsed) | coefficient of friction of the hair, T → R ([2]; rinsed) | coefficient of friction of the hair, R → T ([3]; non-rinsed) | coefficient of friction of the hair, T → R ([3]; non-rinsed) | coefficient of friction of the hair, R → T ([3]; rinsed) | coefficient of friction of the hair, T → R ([3]; rinsed) | I.W.L. 20 H (%) ([1]; 1% in THF) | coefficient of friction (result in words) ([3]; summary of Table 1, neutral and bleached hair) | I.W.L. 20 H (%) ([1]; 1.5% in THF)
1 | CCCCCCCCCCCCCCC(O)C(=O)NC(CO)C(O)C(O)CCCCCCCCCCCCCC (racemic) [Example 2, 2-N-hydroxyhexadecanoylaminooctadecane-1,3,4-triol(4 isomers)] | -31 ± 2 | – | – | – | – | – | – | – | – | – | – | –
2 | CCCCCCCCCCCCCCCC(=O)N[C@@H](CO)[C@H](O)[C@H](O)CCCCCCCCCCCCCC [Compound A, reference compound] | – | 0.000 | 0.000 | 0.191 ± 0.004 | 0.264 ± 0.012 | 0.000 | 0.000 | 0.125 ± 0.004 | 0.214 ± 0.004 | 0 ± 2 | – | –
3 | CCCCCCCCCCCCCCCC(=O)NC(CO)C(O)C(O)CCCCCCCCCCCCCC (stereo not drawn) [Example 4, 2-N-hexadecanoylaminooctadecane-1,3,4-triol (8 isomers)] | – | 0.009 ± 0.006 | 0.147 ± 0.006 | 0.085 ± 0.002 | 0.155 ± 0.004 | 0.089 ± 0.003 | 0.143 ± 0.003 | 0.095 ± 0.004 | 0.147 ± 0.004 | -9 ± 2 | marked decrease in the coefficient of friction | -15 ± 2
